Where a name gives a salt, the structure may show the parent alone. Read-outs that look alike come from different tables or passages of the source.
Experiment: Measurement of optical absorption spectrum and its pH dependence (ultraviolet visible spectrophotometer)
Format: physicochemical
Conditions: for absorption maxima / shift of maximum absorption wavelength: in DMSO; for absorption maxima / pH dependence of absorption properties: 1 μM; for pH dependence of absorption properties: phosphate buffers of various pH, 30% by volume DMSO; for shift of maximum absorption wavelength: aryl piperazine cyanines
Method: In order to investigate the optical absorption properties of the synthesized ICG derivatives, absorption spectra were measured and their pH dependence was examined using an ultraviolet visible spectrophotometer at a concentration of 1 μM either in dimethyl sulfoxide (DMSO) or in phosphate buffers of various pH with DMSO as a cosolvent (30% by volume of DMSO and 70% by volume of phosphate buffer).
For each ICG derivative, an absorption spectrum consisted of relative absorbance was obtained by setting the absorbance of the absorption peak near 700 nm in DMSO (absorbance at the maximum absorption wavelength) to 1.
The optical absorption spectra of the IGC derivative PBA-Cy was measured at various pH values in the same manner as in Example 1.
The optical absorption properties of the synthesized ICG derivatives (PPA-Cy and SS-PPA-Cy) were investigated in the same manner as in Example 1, and their pH dependence was examined.

[1] = phosphate buffers of various pH with DMSO as cosolvent, from pH dependence of absorption spectra, read-out: pKa

Molecule | absorption maxima | pH dependence of absorption properties | other results
CC1(C)C(/C=C/C2=C(N3CCOCC3)C(=C/C=C3/N(CCCS(=O)(=O)[O-])c4ccc5ccccc5c4C3(C)C)/CCC2)=[N+](CCCS(=O)(=O)[O-])c2ccc3ccccc3c21.[Na+] [Mor-Cy, 2-[2-[3-[2-[1,3-dihydro-3,3-dimethyl-1-(3-sulfopropyl)-2H-benz[e]indol-2-ylidene]ethylidene]-2-(4-morpholinyl)-1-cyclohexen-1-yl]ethenyl]-3,3-dimethyl-1-(3-sulfopropyl)-3H-benz[e]indolium, Inner Salt, Sodium Salt] | ~700 nm | no change in absorption properties due to the pH | –
2-[2-[2-[4-(2-carboxyethyl)piperazinyl]-3-[2-[1,3-dihydro-3,3-dimethyl-1-(3-sulfopropyl)-7-sulfo-2H-benz[e]indol-2-ylidene]ethylidene]cyclohexen-1-yl]ethenyl]-3,3-dimethyl-1-(3-sulfopropyl)-7-sulfo-3H-benz[e]indolium, Inner Salt, Sodium Salt [SS-PPA-Cy] | – | the maximum absorption wavelength shifted to the longer wavelength side as the pH became more acidic | pKa: 6.8
2-[2-[3-[2-[1,3-dihydro-3,3-dimethyl-1-(3-sulfopropyl)-2H-benz[e]indol-2-ylidene]ethylidene]-2-(4-methyl-1-piperazinyl)-1-cyclohexen-1-yl]ethenyl]-3,3-dimethyl-1-(3-sulfopropyl)-3H-benz[e]indolium, Inner Salt, Sodium Salt [MP-Cy] | ~700 nm | the maximum absorption wavelength shifted to the longer wavelength side as the pH became more acidic | –
2-[2-[3-[2-[1,3-dihydro-3,3-dimethyl-1-(3-sulfopropyl)-2H-benz[e]indol-2-ylidene]ethylidene]-2- [1-(4-nitrophenyl)-piperazinyl]-1-cyclohexen-1-yl]ethenyl]-3,3-dimethyl-1-(3-sulfopropyl)-3H-benz[e]indolium, Inner Salt, Sodium Salt [Nitro-PhP-Cy] | – | – | shift of maximum absorption wavelength: the maximum absorption wavelength was shifted to the longer wavelength side
CC1(C)C(/C=C/C2=C(N3CCN(Cc4ccc(CC(=O)O)cc4)CC3)C(=C/C=C3/N(CCCS(=O)(=O)[O-])c4ccc5ccccc5c4C3(C)C)/CCC2)=[N+](CCCS(=O)(=O)[O-])c2ccc3ccccc3c21.[Na+] [PBA-Cy, 2-[2-[3-[2-[1,3-dihydro-3,3-dimethyl-1-(3-sulfopropyl)-2H-benz[e]indol-2-ylidene]ethylidene]-2-[1-(4-carboxymethylbenzyl)-piperazinyl]-1-cyclohexen-1-yl]ethenyl]-3,3-dimethyl-1-(3-sulfopropyl)-3H-benz[e]indolium, Inner Salt, Sodium Salt] | – | shifted to the longer wavelength side as the pH became more acidic | pKa [1]: 4.9; molar absorption coefficient (used to calculate PBA-Cy concentration in conjugate solution): 32,000 M^−1 cm^−1
2-[2-[3-[2-[1,3-dihydro-3,3-dimethyl-1-(3-sulfopropyl)-2H-benz[e]indol-2-ylidene]ethylidene]-2-(4-methylsulfonyl-1-piperazinyl)-1-cyclohexen-1-yl]ethenyl]-3,3-dimethyl-1-(3-sulfopropyl)-3H-benz[e]indolium, Inner Salt, Sodium Salt [MSP-Cy] | around 800 nm | – | –
2-[2-[3-[2-[1,3-dihydro-3,3-dimethyl-1-(3-sulfopropyl)-2H-benz[e]indol-2-ylidene]ethylidene]-2-[1-(4-cyanophenyl)-piperazinyl]-1-cyclohexen-1-yl]ethenyl]-3,3-dimethyl-1-(3-sulfopropyl)-3H-benz[e]indolium, Inner Salt, Sodium Salt [Nitrille-PhP-Cy] | – | – | shift of maximum absorption wavelength: the maximum absorption wavelength was shifted to the longer wavelength side
CC1(C)C(/C=C/C2=C(N3CCN(CCC(=O)[O-])CC3)C(=C/C=C3/N(CCCS(=O)(=O)[O-])c4ccc5ccccc5c4C3(C)C)/CCC2)=[N+](CCCS(=O)(=O)[O-])c2ccc3ccccc3c21.[Na+].[Na+] [PPA-Cy, 2-[2-[2-[4-(2-carboxyethyl)piperazinyl]-3-[2-[1,3-dihydro-3,3-dimethyl-1-(3-sulfopropyl)-2H-benz[e]indol-2-ylidene]ethylidene]-1-cyclohexenyl]ethenyl]-3,3-dimethyl-1-(3-sulfopropyl)-3H-benz[e]indolium, Inner Salt, Sodium Salt] | – | the maximum absorption wavelength shifted to the longer wavelength side as the pH became more acidic | pKa [1]: 5.7

Further lines, with some results ahead:

absorption maxima | Molecule | pH dependence of absorption properties | other results
~700 nm | CC1(C)C(=CC=C2CCCC(C=CC3=[N+](CCCS(=O)(=O)[O-])c4ccc5ccccc5c4C3(C)C)=C2N2CCCCC2)N(CCCS(=O)(=O)[O-])c2ccc3ccccc3c21.[Na+] [Piperi-Cy, 2-[2-[3-[2-[1,3-dihydro-3,3-dimethyl-1-(3-sulfopropyl)-2H-benz[e]indol-2-ylidene]ethylidene]-2-(1-piperidinyl)-1-cyclohexen-1-yl]ethenyl]-3,3-dimethyl-1-(3-sulfopropyl)-3H-benz[e]indolium, Inner Salt, Sodium Salt] | – | –
around 800 nm | 2-[2-[3-[2-[1,3-Dihydro-3,3-dimethyl-1-(3-sulfopropyl)-2H-benz[e]indol-2-ylidene]ethylidene]-2-(4-acetyl-1-piperazinyl)-1-cyclohexen-1-yl]ethenyl]-3,3-dimethyl-1-(3-sulfopropyl)-3H-benz[e]indolium, Inner Salt, Sodium Salt [AcP-Cy] | – | –
around 800 nm | CC1(C)C(=CC=C2CCCC(C=CC3=[N+](CCCS(=O)(=O)[O-])c4ccc5ccccc5c4C3(C)C)=C2N2CC[N+](C)(C)CC2)N(CCCS(=O)(=O)[O-])c2ccc3ccccc3c21 [DMP-Cy, 2-[2-[3-[2-[1,3-dihydro-3,3-dimethyl-1-(3-sulfopropyl)-2H-benz[e]indol-2-ylidene]ethylidene]-2-(4-dimethyl-1-piperaziniumyl)-1-cyclohexen-1-yl]ethenyl]-3,3-dimethyl-1-(3-sulfopropyl)-3H-benz[e]indolium, Inner Salt, Sodium Salt] | – | –

Reference: patent publication US20230114083A1, “PHOTOACOUSTIC IMAGING AGENT” (National University Corporation Hokkaido University, priority 2021, published 2023)
